# Measured values: US10434142B2, “Compositions and methods of improved wound healing” (Chan Soon-Shiong Nanthealth Foundation, priority 2013, dated 2019)
# “Also recorded” adds a separate entry of the source.
# Assays:
# κB-LUC THP-1 cells = experiment: Activation of κB-LUC THP-1 cells by S. aureus conditioned/spent media (FIGS. 3A-3C); format: cell-based, human; settings: for recognition of S. aureus conditioned/spent media (activation of κB-LUC THP-1 cells): suboptimal doses: thapsigargin, 316 nM A23187, 1 μM ionomycin
# NOD1 = experiment: IL-8 production, calcium flux agonist plus NOD1 ligand (FIGS. 2A-2E); format: cell-based; settings: suboptimal doses: 20 nM thapsigargin, 316 nM A23187, 1 μM ionomycin, 10 μM cyclopiazonic acid, 31.6 μM DBHQ
# Method: (§1) To investigate if that observation was also true for other pattern recognition receptors, and especially for TLR and NOD receptors and other ligands, the inventors tested numerous TLR and NOD receptors and various ligands.
# (§2) The doses used in this experiment were 20 nM for thapsigargin, 316 nM for A23187, 1 μM for ionomycin, 10 μM for cyclopiazonic acid, and 31.6 μM for DBHQ.
# (§3) Thus, a clear pattern of adjuvant activity of calcium flux agonists on the immune response, and especially on IL-8 production and NF-κB signaling is evident where the immune response is associated with a TLR- or NOD-mediated event.
# TLR4 = experiment: IL-8 production, calcium flux agonist plus TLR4 ligand (FIGS. 2A-2E); format: cell-based; settings: suboptimal doses: 20 nM thapsigargin, 316 nM A23187, 1 μM ionomycin, 10 μM cyclopiazonic acid, 31.6 μM DBHQ
# Method: as §1, §2, §3
# NOD2 = experiment: IL-8 production, calcium flux agonist plus NOD2 ligand (FIGS. 2A-2E); format: cell-based; settings: suboptimal doses: 20 nM thapsigargin, 316 nM A23187, 1 μM ionomycin, 10 μM cyclopiazonic acid, 31.6 μM DBHQ
# Method: as §1, §2, §3
# TLR2 = experiment: IL-8 production, calcium flux agonist plus TLR2 ligand (FIGS. 2A-2E); format: cell-based; settings: suboptimal doses: 20 nM thapsigargin, 316 nM A23187, 1 μM ionomycin, 10 μM cyclopiazonic acid, 31.6 μM DBHQ
# Method: as §1, §2, §3
# TLR5 = experiment: IL-8 production, calcium flux agonist plus TLR5 ligand (FIGS. 2A-2E); format: cell-based; settings: suboptimal doses: 20 nM thapsigargin, 316 nM A23187, 1 μM ionomycin, 10 μM cyclopiazonic acid, 31.6 μM DBHQ
# Method: as §1, §2, §3
# [1] = test system: human THP-1 promonocytic leukemia cell line; experiment: IL-8 production / cytokine release from THP-1 cells, TLR2 ligand with or without calcium flux agonist; format: cell-based; settings: suboptimal dose of TLR2 ligand (Pam2CSK4 / Pam2CYS) plus suboptimal dose of agonist; beyond cumulative individual responses
# Method: (§4) For example, human promonocytic THP-1 cells were incubated in the presence or absence of a suboptimal dose of the TLR2 ligand Pam2CSK4 and compared to similarly treated cells which also received suboptimal doses of ionophore (here: A23187 and ionomycin). […] In another example, KB-LUC THP-1 cells (a THP-1-derived transfectant line harboring an NF-κB-driven luciferase expression cassette) were cultivated in the presence or absence of a suboptimal dose of the TLR2 ligand Pam2CSK4 and compared to similarly treated cells that also received suboptimal doses of various SERCA inhibitors.
# Here, the ionophores A23187 and ionomycin, as well as the SERCA inhibitor thapsigargin synergize with the TLR2 ligand (Pam2CYS) in the activation of cytokine release from the human THP-1 promonocytic leukemia cell line. It should be especially noted that while the TLR2 ligand alone provided for about 5 ng/ml IL-8 response, addition of a suboptimal dose of the calcium flux agonists (e.g. 20 nM for thapsigargin, 316 nM for A23187, and 1 μM for ionomycin) produced more than 10-fold quantities of IL-8 production in the cells.
# TLR9 = experiment: IL-8 production, calcium flux agonist plus TLR9 ligand (FIGS. 2A, 2B, 2E); format: cell-based; settings: suboptimal doses: 20 nM thapsigargin, 316 nM A23187, 1 μM ionomycin
# Method: as §1, §2, §3
# KB-LUC THP-1 cells = experiment: NF-κB-driven luciferase in KB-LUC THP-1 cells, TLR2 ligand Pam2CSK4 with or without SERCA inhibitor; format: cell-based, human; settings: suboptimal dose of Pam2CSK4 plus suboptimal dose of SERCA inhibitor; beyond cumulative individual responses
# Method: as §4
SMILES,effect on calcium flux-induced synergy (κB-LUC THP-1 cells; extracellular chelator added at 1 mM),synergistic effect to augment cellular response (IL-8 production) for NOD1 (NOD1),synergistic effect to augment cellular response (IL-8 production) for TLR4 (TLR4),synergistic effect to augment cellular response (IL-8 production) for NOD2 (NOD2),synergistic effect to augment cellular response (IL-8 production) for TLR2 (TLR2),synergistic effect to augment cellular response (IL-8 production) for TLR5 (TLR5),synergy with TLR2 ligand in IL-8 production / cytokine release [1],recognition of S. aureus conditioned/spent media (activation of κB-LUC THP-1 cells) (κB-LUC THP-1 cells),synergistic effect to augment cellular response (IL-8 production) for TLR9 (TLR9),"amount of luciferase produced (NF-κB-driven), synergy with TLR2 ligand (KB-LUC THP-1 cells)"
O=C(O)CN(CCOCCOCCN(CC(=O)O)CC(=O)O)CC(=O)O [EGTA],inhibited,–,–,–,–,–,–,–,–,–
"CC(C)(C)c1cc(O)c(C(C)(C)C)cc1O [DBHQ, 2,5-di(tert-butyl) hydroquinone]",–,synergistic effect,synergistic effect,synergistic effect,synergistic effect,synergistic effect,–,–,–,–
C[C@H](CCC(=O)O)C[C@H](C)C[C@H](C)C(=O)/C=C(\O)[C@H](C)C[C@H](C)C/C=C/[C@@H](C)[C@@H](O)[C@@H](C)[C@@H](O)C[C@@H]1CC[C@@](C)([C@H]2CC[C@@](C)([C@@H](C)O)O2)O1 [ionomycin],–,synergistic effect,synergistic effect,synergistic effect,synergistic effect,synergistic effect,significantly increased; also recorded: synergize,significantly enhanced,synergistic effect,–
C/C=C(/C)C(=O)O[C@H]1C(C)=C2[C@H]([C@@H]1OC(=O)CCCCCCC)[C@@](C)(OC(C)=O)C[C@H](OC(=O)CCC)[C@@]1(O)[C@H]2OC(=O)[C@@]1(C)O [thapsigargin],–,synergistic effect,synergistic effect,synergistic effect,synergistic effect,synergistic effect,synergize,significantly enhanced,synergistic effect,significantly increased
CNc1ccc2oc(C[C@H]3O[C@@]4(CC[C@H]3C)O[C@H]([C@H](C)C(=O)c3ccc[nH]3)[C@H](C)C[C@H]4C)nc2c1C(=O)O [A23187],–,synergistic effect,synergistic effect,synergistic effect,synergistic effect,synergistic effect,significantly increased; also recorded: synergize,significantly enhanced,synergistic effect,–
